This is an account of results in US20220347297A1, “METHODS OF PERMITTING A SUBJECT TO RECEIVE MULTIPLE DOSES OF RECOMBINANT ADENO-ASSOCIATED VIRUS” (University of Florida Research Foundation, Incorporated, priority 2014, published 2022).

Entries after “also recorded” stand apart in the source; their conditions may differ.

The subject of assay [1] is B-cells (CD20), CD3 positive lymphocytes. The experiment in a line: Enumeration of B- and T-lymphocyte subpopulations in peripheral blood by flow cytometry. It is filed as in vivo, human. To be noted: 375 mg/m^2 weekly for 3 weeks, then at 12 weeks intervals.
Method: Enumeration of B- and T-lymphocyte subpopulations in peripheral blood was done by flow cytometry using monoclonal Abs to CD19 or CD20 for B cells and monoclonal Abs to CD3, CD4, and CD8 for T cells. Sirolimus trough levels, IgG, CD3, CD4, CD8, CD19, CD20, N-terminal pro-brain natriuretic peptide, creatine kinase, creatine kinase-MB, C-reactive protein, platelets, alkaline phosphatase, gamma-glutamyl transferase, aspartate aminotransferase, and alanine aminotransferase were measured at regular intervals.
For assay [2], the system named is anti-rAAV NAbs / GAA antibody responses. To be noted: cited from earlier work.
The subject of the next assay is AAV1 capsid proteins. The experiment in a line: ELISA for circulating antibodies to AAV1 capsid in serum of Pompe subjects. To be noted: Pompe patient, rituximab with sirolimus prior to rAAV1-GAA.

Method for AAV1 capsid proteins: Serum samples were assayed by ELISA for circulating antibodies to the AAV1 capsid proteins.
Serum samples were assayed by enzyme linked immunosorbent assay (ELISA) for circulating antibodies to the intact AAV1 capsid and hGAA protein 21, 46. Anti-AAV1 and anti-hGAA ASR and ELISPOT assay were performed as previously described on isolated peripheral blood mononuclear cells (ref. 47).

In the case of “Rituximab: monoclonal antibody that induces B-cell depletion by binding the CD20 protein found on the surface of B-cells”, the “CD20 counts (B-cells)” value in assay [1] is given as “complete depletion”. Besides, the “GAA antibody responses to ERT” value in assay [2] (CRIM-negative infants with early-onset Pompe disease, Rituximab plus Sirolimus before initiation of ERT (Elder et al.)) is listed as “able to block GAA antibody responses”. Besides, the “existing anti-rAAV NAbs” value in assay [2] (humans receiving rituximab for rheumatoid arthritis (ref. 33) and non-human primates) is on record as “successful in reduction”. For the same substance, the “immune response to rAAV vector (capsid and transgene) after B-cell depletion prior to vector exposure” value with AAV1 capsid proteins is “immune non-responsiveness; also recorded: nonresponsiveness to both capsid and transgene”.
